Assay results taken from ChEMBL document CHEMBL4828721, “Substituted dienes prepared from betulinic acid - Synthesis, cytotoxicity, mechanism of action, and pharmacological parameters” (Eur J Med Chem, 2021).

System: BJ
Assay: Cytotoxicity against human BJ cells assessed as reduction in cell viability measured after 72 hrs by MTS assay
Type: cell-based
Conditions: not given

C=C(/C=C/c1ccc(F)c(Cl)c1)[C@@H]1CC[C@]2(C(=O)O)CC[C@]3(C)[C@H](CC[C@@H]4[C@@]5(C)CC[C@H](O)C(C)(C)[C@@H]5CC[C@]43C)[C@@H]12 and C=C(/C=C/c1cccc(I)c1)[C@@H]1CC[C@]2(C(=O)O)CC[C@]3(C)[C@H](CC[C@@H]4[C@@]5(C)CC[C@H](O)C(C)(C)[C@@H]5CC[C@]43C)[C@@H]12 cannot be ordered by IC50: over 50 µM for the first, over 50 µM for the second.

System: MRC5
Assay: Cytotoxicity against human MRC5 cells assessed as reduction in cell viability measured after 72 hrs by MTS assay
Type: cell-based
Conditions: MRC5, 72 h

Compared with C=C(/C=C/c1ccc(F)c(Cl)c1)[C@@H]1CC[C@]2(C(=O)O)CC[C@]3(C)[C@H](CC[C@@H]4[C@@]5(C)CC[C@H](O)C(C)(C)[C@@H]5CC[C@]43C)[C@@H]12, C=C(/C=C/c1cccc(I)c1)[C@@H]1CC[C@]2(C(=O)O)CC[C@]3(C)[C@H](CC[C@@H]4[C@@]5(C)CC[C@H](O)C(C)(C)[C@@H]5CC[C@]43C)[C@@H]12 is higher in IC50: 32.4 µM for the first, over 50 µM for the second.

System: CEM-DNR
Assay: Cytotoxicity against daunorubicin resistant human CEM-DNR cells assessed as reduction in cell viability measured after 72 hrs by MTS assay
Type: functional, cell-based
Conditions: not given

Going from C=C(/C=C/c1ccc(F)c(Cl)c1)[C@@H]1CC[C@]2(C(=O)O)CC[C@]3(C)[C@H](CC[C@@H]4[C@@]5(C)CC[C@H](O)C(C)(C)[C@@H]5CC[C@]43C)[C@@H]12 to C=C(/C=C/c1cccc(I)c1)[C@@H]1CC[C@]2(C(=O)O)CC[C@]3(C)[C@H](CC[C@@H]4[C@@]5(C)CC[C@H](O)C(C)(C)[C@@H]5CC[C@]43C)[C@@H]12, the IC50 rises from 27.8 µM to over 50 µM.

System: A549
Assay: Cytotoxicity against human A549 cells assessed as reduction in cell viability measured after 72 hrs by MTS assay
Type: functional, cell-based
Conditions: A549, 72 h

In order of rising IC50:
1. C=C(/C=C/c1cccc(I)c1)[C@@H]1CC[C@]2(C(=O)O)CC[C@]3(C)[C@H](CC[C@@H]4[C@@]5(C)CC[C@H](O)C(C)(C)[C@@H]5CC[C@]43C)[C@@H]12  38.7 µM
2. C=C(/C=C/c1ccc(F)c(Cl)c1)[C@@H]1CC[C@]2(C(=O)O)CC[C@]3(C)[C@H](CC[C@@H]4[C@@]5(C)CC[C@H](O)C(C)(C)[C@@H]5CC[C@]43C)[C@@H]12  45.5 µM

System: CCRF-CEM
Assay: Cytotoxicity against human CCRF-CEM cells assessed as reduction in cell viability measured after 72 hrs by MTS assay
Type: functional, cell-based
Conditions: not given

In order of rising IC50:
1. C=C(/C=C/c1ccc(F)c(Cl)c1)[C@@H]1CC[C@]2(C(=O)O)CC[C@]3(C)[C@H](CC[C@@H]4[C@@]5(C)CC[C@H](O)C(C)(C)[C@@H]5CC[C@]43C)[C@@H]12  5.5 µM
2. C=C(/C=C/c1cccc(I)c1)[C@@H]1CC[C@]2(C(=O)O)CC[C@]3(C)[C@H](CC[C@@H]4[C@@]5(C)CC[C@H](O)C(C)(C)[C@@H]5CC[C@]43C)[C@@H]12  11.6 µM

System: not listed separately
Assay: Cytotoxicity against human HCT116 p53-null cells assessed as reduction in cell viability measured after 72 hrs by MTS assay
Type: functional, cell-based
Conditions: not given

In order of falling IC50:
1. C=C(/C=C/c1cccc(I)c1)[C@@H]1CC[C@]2(C(=O)O)CC[C@]3(C)[C@H](CC[C@@H]4[C@@]5(C)CC[C@H](O)C(C)(C)[C@@H]5CC[C@]43C)[C@@H]12  29.5 µM
2. C=C(/C=C/c1ccc(F)c(Cl)c1)[C@@H]1CC[C@]2(C(=O)O)CC[C@]3(C)[C@H](CC[C@@H]4[C@@]5(C)CC[C@H](O)C(C)(C)[C@@H]5CC[C@]43C)[C@@H]12  20.8 µM

System: K562
Assay: Cytotoxicity against human K562 cells assessed as reduction in cell viability measured after 72 hrs by MTS assay
Type: functional, cell-based
Conditions: K562, 72 h

In order of falling IC50:
1. C=C(/C=C/c1ccc(F)c(Cl)c1)[C@@H]1CC[C@]2(C(=O)O)CC[C@]3(C)[C@H](CC[C@@H]4[C@@]5(C)CC[C@H](O)C(C)(C)[C@@H]5CC[C@]43C)[C@@H]12  40.6 µM
2. C=C(/C=C/c1cccc(I)c1)[C@@H]1CC[C@]2(C(=O)O)CC[C@]3(C)[C@H](CC[C@@H]4[C@@]5(C)CC[C@H](O)C(C)(C)[C@@H]5CC[C@]43C)[C@@H]12  25.2 µM

System: HCT-116
Assay: Cytotoxicity against human HCT-116 cells assessed as reduction in cell viability measured after 72 hrs by MTS assay
Type: functional, cell-based
Conditions: HCT-116, 72 h

In order of falling IC50:
1. C=C(/C=C/c1cccc(I)c1)[C@@H]1CC[C@]2(C(=O)O)CC[C@]3(C)[C@H](CC[C@@H]4[C@@]5(C)CC[C@H](O)C(C)(C)[C@@H]5CC[C@]43C)[C@@H]12  27.3 µM
2. C=C(/C=C/c1ccc(F)c(Cl)c1)[C@@H]1CC[C@]2(C(=O)O)CC[C@]3(C)[C@H](CC[C@@H]4[C@@]5(C)CC[C@H](O)C(C)(C)[C@@H]5CC[C@]43C)[C@@H]12  21.8 µM

System: U2OS
Assay: Cytotoxicity against human U2OS cells assessed as reduction in cell viability measured after 72 hrs by MTS assay
Type: functional, cell-based
Conditions: not given

In order of falling IC50:
1. C=C(/C=C/c1cccc(I)c1)[C@@H]1CC[C@]2(C(=O)O)CC[C@]3(C)[C@H](CC[C@@H]4[C@@]5(C)CC[C@H](O)C(C)(C)[C@@H]5CC[C@]43C)[C@@H]12  28.4 µM
2. C=C(/C=C/c1ccc(F)c(Cl)c1)[C@@H]1CC[C@]2(C(=O)O)CC[C@]3(C)[C@H](CC[C@@H]4[C@@]5(C)CC[C@H](O)C(C)(C)[C@@H]5CC[C@]43C)[C@@H]12  26.5 µM

System: not listed separately
Assay: Cytotoxicity against paclitaxel resistant human K562-Tax cells assessed as reduction in cell viability measured after 72 hrs by MTS assay
Type: functional, cell-based
Conditions: not given

In order of rising IC50:
1. C=C(/C=C/c1ccc(F)c(Cl)c1)[C@@H]1CC[C@]2(C(=O)O)CC[C@]3(C)[C@H](CC[C@@H]4[C@@]5(C)CC[C@H](O)C(C)(C)[C@@H]5CC[C@]43C)[C@@H]12  25.2 µM
2. C=C(/C=C/c1cccc(I)c1)[C@@H]1CC[C@]2(C(=O)O)CC[C@]3(C)[C@H](CC[C@@H]4[C@@]5(C)CC[C@H](O)C(C)(C)[C@@H]5CC[C@]43C)[C@@H]12  48.4 µM
